We go through seven molecules from ChEMBL document CHEMBL1201862, “PubChem BioAssay data set” (2004).

Structures are written as SMILES.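 In this assay, cells in 96-well plates receive the compound at five concentrations for 48 hours. Endpoints are linearly interpolated between the surrounding concentrations. Abbreviation: GI50, concentration required for 50% inhibition of growth.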 Activity calls are given as the source filed them. Cut-off read from the data, not from the text of the source: active = GI50 up to about 1.1 µM and inactive = higher.

Test systems include A549; ACHN; CAKI-1; CCRF-CEM; DU-145; EKVX; HCT-116; HL-60; K562; M14; Malme-3M; NCI-H460; NCI-H522; NCI/ADR-RES; OVCAR-3; PC-3; RXF 393; SNB-19; SW-620; UACC-62.
What all share (experiment): NCI tumour cell line growth inhibition, 48 h

`COc1ccc2nc3cccc([N+](=O)[O-])c3c(NCCC(=O)O)c2c1`: the GI50 in the assay on A549 is > 10 µM (inactive); with ACHN, > 10 µM (inactive); in the assay with CAKI-1 it was > 10 µM (inactive); in the assay on CCRF-CEM, 6.67 µM (inactive); in the assay on DU-145 it was > 10 µM (inactive); in the assay with EKVX, > 10 µM (inactive). Further, the GI50 was > 10 µM (inactive) with HCT-116; > 10 µM (inactive) in the assay with HL-60; > 10 µM (inactive) in the assay with K562; > 10 µM (inactive) in the assay with M14; 4.51 µM (inactive) in the assay on Malme-3M; > 10 µM (inactive) in the assay with NCI-H460. Besides, the GI50 with NCI-H522 is 4.56 µM (inactive); with NCI/ADR-RES it was > 10 µM (inactive); in the assay with OVCAR-3, > 10 µM (inactive); with PC-3, > 10 µM (inactive); in the assay on RXF 393, > 10 µM (inactive); in the assay with SNB-19 it was > 10 µM (inactive). Further, the GI50 in the assay with SW-620 and in the assay with UACC-62 was > 10 µM (inactive) throughout.
Take `CC(=O)n1cc(C2CC23N=C(c2ccccc2)OC3=O)c2ccccc21` (stereo not given): the GI50 in the assay on A549 was 21.7 µM (inactive); in the assay with ACHN, 17.7 µM (inactive); in the assay on CAKI-1, 15.8 µM (inactive); in the assay on CCRF-CEM, 1.12 µM (inactive); with DU-145, 16 µM (inactive); in the assay on EKVX it was 21.8 µM (inactive). Further, the GI50 was 14.4 µM (inactive) in the assay on HCT-116; 2.04 µM (inactive) in the assay on HL-60; 13.7 µM (inactive) with K562; 16.2 µM (inactive) in the assay on M14; 20.6 µM (inactive) with Malme-3M; 22.4 µM (inactive) with NCI-H460. Also, the GI50 is 15.3 µM (inactive) in the assay with NCI-H522; 18.2 µM (inactive) in the assay on NCI/ADR-RES; 18 µM (inactive) in the assay with OVCAR-3; 17.8 µM (inactive) in the assay with PC-3; 16.3 µM (inactive) in the assay with RXF 393; 31.3 µM (inactive) in the assay with SNB-19. Also, the GI50 in the assay with SW-620 is 19.8 µM (inactive); in the assay with UACC-62, 16.9 µM (inactive).
With `CCCCCC(O)[C@H]1C(=O)C[C@@H](O[Si](C)(C)C(C)(C)C)[C@@H]1/C=C/CCOCc1ccccc1` (stereo not given in full), the GI50 was 18 µM (inactive) with A549; 13.5 µM (inactive) in the assay with ACHN; 8.47 µM (inactive) in the assay on CAKI-1; > 55.5 µM (inactive) in the assay on CCRF-CEM; 20 µM (inactive) in the assay on DU-145; 17.4 µM (inactive) in the assay on EKVX. Also, the GI50 is 6.9 µM (inactive) with HCT-116; 2.35 µM (inactive) in the assay on HL-60; > 36.5 µM (inactive) in the assay on K562; 12.6 µM (inactive) with M14; 15.3 µM (inactive) in the assay on Malme-3M; 16.9 µM (inactive) with NCI-H460. The GI50 in the assay with NCI-H522 was 3.88 µM (inactive); with NCI/ADR-RES, 12.1 µM (inactive); in the assay on OVCAR-3 it was 13.7 µM (inactive); in the assay on PC-3, 12.1 µM (inactive); in the assay on RXF 393, 12.2 µM (inactive); in the assay on SNB-19, 15 µM (inactive). Also, the GI50 in the assay with SW-620 was 13.1 µM (inactive); in the assay with UACC-62, 11.8 µM (inactive).
Regarding `O=C1c2cccc3cc4ccccc4c(c23)C(=O)N1CCCNCCNCCCN1C(=O)c2cccc3cc4ccccc4c(c23)C1=O`, the GI50 in the assay with A549 was 0.0133 µM (active); in the assay on ACHN it was < 0.0227 µM (active); in the assay with CAKI-1 it was 0.141 µM (active); in the assay with CCRF-CEM, < 0.01 µM (active); in the assay on DU-145, 0.475 µM (active); in the assay on EKVX, 1.15 µM (inactive). For the same molecule, the GI50 in the assay on HCT-116 is < 0.0191 µM (active); with HL-60 it was < 0.0171 µM (active); in the assay on K562, < 0.01 µM (active); in the assay with M14, 0.177 µM (active); in the assay with Malme-3M it was 0.211 µM (active); in the assay with NCI-H460, < 0.01 µM (active). The GI50 in the assay on NCI-H522 is < 0.01 µM (active); with NCI/ADR-RES, 0.314 µM (active); in the assay on OVCAR-3 it was 0.353 µM (active); in the assay with PC-3, 0.152 µM (active); in the assay with RXF 393, 0.179 µM (active); with SNB-19, 0.217 µM (active). The GI50 is < 0.01 µM (active) in the assay on SW-620 and 0.0575 µM (active) with UACC-62.
As for `COc1cc(/C=C2\CCC/C(=C\c3cc(OC)c(O)c(OC)c3)C2=O)cc(OC)c1O`, the GI50 in the assay on A549 was 1.67 µM (inactive); in the assay on ACHN, 1.22 µM (inactive); in the assay with CAKI-1 it was 1.84 µM (inactive); in the assay with CCRF-CEM it was 0.43 µM (active); in the assay with DU-145 it was 2.39 µM (inactive); in the assay with EKVX, 4.5 µM (inactive). Besides, the GI50 in the assay with HCT-116 was 1.32 µM (inactive); in the assay with HL-60 it was 1.72 µM (inactive); with K562, 4.81 µM (inactive); in the assay with M14, 1.88 µM (inactive); in the assay with Malme-3M, 1.51 µM (inactive); in the assay with NCI-H460, 2.22 µM (inactive). Besides, the GI50 in the assay on NCI-H522 was 1.53 µM (inactive); in the assay on NCI/ADR-RES it was 2.19 µM (inactive); in the assay on OVCAR-3, 1.07 µM (active); in the assay on PC-3 it was 3.35 µM (inactive); in the assay on RXF 393 it was 1.43 µM (inactive); with SNB-19, 1.81 µM (inactive). Also, the GI50 in the assay with SW-620 is 3.37 µM (inactive); in the assay with UACC-62, 1.38 µM (inactive).
For `O=c1[nH]c(Br)nc2[nH]nnc12`, the GI50 with A549 is > 100 µM (inactive); with ACHN, > 100 µM (inactive); with CAKI-1, 7.08 µM (inactive); with CCRF-CEM, 7.55 µM (inactive); with DU-145 it was 14.1 µM (inactive); with EKVX, 70.1 µM (inactive). Besides, the GI50 in the assay with HCT-116 is 32 µM (inactive); in the assay on HL-60, 5.52 µM (inactive); in the assay with K562, 9.4 µM (inactive); in the assay with M14, 19.8 µM (inactive); with Malme-3M, 6.95 µM (inactive); in the assay on NCI-H460, > 100 µM (inactive). For the same molecule, the GI50 is > 100 µM (inactive) with NCI-H522; 10.4 µM (inactive) in the assay with NCI/ADR-RES; > 100 µM (inactive) with OVCAR-3; 69.5 µM (inactive) with PC-3; 35 µM (inactive) in the assay with RXF 393; > 100 µM (inactive) in the assay with SNB-19. The GI50 was 45.8 µM (inactive) in the assay with SW-620 and 15.9 µM (inactive) with UACC-62.
As for `O=C1c2ccccc2-n2c1nc1ccccc1c2=O` [TRYPTANTHRIN], the GI50 with A549 is 2.59 µM (inactive); in the assay with ACHN it was 2 µM (inactive); in the assay on CAKI-1, 12.3 µM (inactive); in the assay on CCRF-CEM, 9.08 µM (inactive); in the assay on DU-145 it was 10.7 µM (inactive); with EKVX it was 13.4 µM (inactive). In addition, the GI50 in the assay with HCT-116 was 5.86 µM (inactive); in the assay on HL-60, 3.71 µM (inactive); in the assay with K562, 3.18 µM (inactive); in the assay with M14, 5.65 µM (inactive); in the assay with Malme-3M, 13.4 µM (inactive); with NCI-H460, 1.44 µM (inactive). For the same molecule, the GI50 was 15.3 µM (inactive) in the assay with NCI-H522; 22.3 µM (inactive) in the assay on NCI/ADR-RES; 4.54 µM (inactive) with OVCAR-3; 0.649 µM (active) with PC-3; 28.1 µM (inactive) in the assay with RXF 393; 25 µM (inactive) in the assay on SNB-19. Also, the GI50 in the assay with SW-620 was 20.8 µM (inactive); in the assay on UACC-62, 3.69 µM (inactive).
